Test results from article PMC6321168, “Comparative Study on Excretive Characterization of Main Components in Herb Pair Notoginseng-Safflower and Single Herbs by LC–MS/MS” (Pharmaceutics, 2018).

Test: Urinary excretion study in rats after oral NS, SF or CNS (LC–MS/MS)
Format: in vivo
Conditions: for concentration at 2 h / concentration at 4 h / concentration at 8 h / concentration at 12 h / concentration at 24 h / concentration at 36 h / concentration at 48 h / concentration at 72 h / concentration at 96 h / concentration at 120 h / concentration at 6 h: male, Sprague Dawley, rat, urine, oral; for Accumulative excretion amount / Accumulative excretion percentage / Excretion amount: rat urine
Protocol: The animal room was set at constant temperature of 20 ± 2 °C with humidity of 50 ± 20% and 12/12 h light/dark cycle.
Eighteen male rats were fasted for 12 h before starting the experiment. The rats were divided into three groups at random (n = 6) and received NS (60 mg/kg), SF (50 mg/kg), and NS (60 mg/kg) + SF (50 mg/kg), respectively, by oral gavage. The rats were placed in separate metabolic cages. The urine samples were collected at 0–2, 2–4, 4–6, 6–8, 8–12, 12–24, 24–36, 36–48, 48–72, 72–96, and 96–120 h. The feces samples were collected at 0–4, 4–8, 8–12, 12–24, 24–36, 36–48, 48–72, 72–96, and 96–120 h. The urine volume was recorded and the dry feces were measured for each collection period. Samples were stored at −80 °C until analysis.
An aliquot of 200 μL urine sample was mixed with 10 μL of IS and evaporated to dryness with a ZLS-2 vacuum centrifugal concentrator (Herexi Co., Ltd., Changsha, Hunan, China). The residue was reconstituted in 100 μL of 50% methanol vortexed for 2 min and centrifuged at 12,000 rpm for 15 min. Finally, a 1 μL aliquot was injected for LC–MS analysis.
Ultra fast liquid chromatography (UFLC) analysis was performed using a Shimadzu UFLC system (DGU-20A3R Degasser; LC-20AD pump; SIL-20AXR Autosampler; CTO-20AC Column Oven) (Nakagyo-Ku, Koyoto, Japan). […] Because of the different endogenous substances in the urine and feces samples, different elution gradients were used to alleviate the matrix effects for the analytes.
The mass spectrometric detection was performed on an ABSciex 4500 Qtrap mass spectrometer (ABSciex, Foster City, CA, USA) equipped with a negative electrospray ionization (ESI) interface using multiple reaction monitoring (MRM). The MS parameters were optimized under the selected ion monitoring conditions as follows: curtain gas, 35 psi; ionspray voltage, 4500 V; turbo gas temperature, 450 °C; GS1, 45 psi; GS2, 45 psi. All data were acquired and analyzed by Analyst software (Versions 1.6.2) from ABSciex.
The accumulative excretion percentage was calculated for each analyte as follows. Excretion at time (t) = [concentration of the analyte (ng/mL) at t] × total urine (or feces) volume (mL) at t. The cumulative excretion up to time t (mg) was expressed as a percent (%) cumulative excretion by dividing by the total amount of the analyte ingested (mg): % Cumulative Excretion = 100 × (Σt excretiont) total ingested.

concentration at 2 h (60 mg/kg, oral NS 60 mg/kg, 2 h): 3.36 ± 7.02 µg/mL
concentration at 4 h (60 mg/kg, oral NS 60 mg/kg, 4 h): 1.68 ± 1.8 µg/mL
concentration at 8 h (60 mg/kg, oral NS 60 mg/kg, 8 h): 1.14 ± 1.23 µg/mL
concentration at 12 h (60 mg/kg, oral NS 60 mg/kg, 12 h): 0.727 ± 0.171 µg/mL
concentration at 24 h (60 mg/kg, oral NS 60 mg/kg, 24 h): 0.135 ± 0.209 µg/mL
concentration at 36 h (60 mg/kg, oral NS 60 mg/kg, 36 h): 0.115 ± 0.151 µg/mL
concentration at 48 h (60 mg/kg, oral NS 60 mg/kg, 48 h): 0.1 ± 0.171 µg/mL
concentration at 72 h (60 mg/kg, oral NS 60 mg/kg, 72 h): 0.178 ± 0.382 µg/mL
concentration at 96 h (60 mg/kg, oral NS 60 mg/kg, 96 h): 0.085 ± 0.159 µg/mL
concentration at 120 h (60 mg/kg, oral NS 60 mg/kg, 120 h): 0.059 ± 0.105 µg/mL
concentration at 2 h (oral CNS 110 mg/kg, 2 h): 1.51 ± 1.44 µg/mL
concentration at 4 h (oral CNS 110 mg/kg, 4 h): 1.69 ± 2.34 µg/mL
concentration at 6 h (oral CNS 110 mg/kg, 6 h): 0.544 ± 0.216 µg/mL
concentration at 8 h (oral CNS 110 mg/kg, 8 h): 0.835 ± 0.697 µg/mL
concentration at 12 h (oral CNS 110 mg/kg, 12 h): 0.789 ± 0.937 µg/mL
concentration at 24 h (oral CNS 110 mg/kg, 24 h): 2.35 ± 5.83 µg/mL
concentration at 36 h (oral CNS 110 mg/kg, 36 h): 0.228 ± 0.361 µg/mL
concentration at 48 h (oral CNS 110 mg/kg, 48 h): 0.065 ± 0.082 µg/mL
concentration at 72 h (oral CNS 110 mg/kg, 72 h): 0.093 ± 0.156 µg/mL
concentration at 96 h (oral CNS 110 mg/kg, 96 h): 0.046 ± 0.053 µg/mL
concentration at 120 h (oral CNS 110 mg/kg, 120 h): 0.08 ± 0.174 µg/mL
concentration at 6 h (oral NS 60 mg/kg, 6 h): 1.45 ± 1.46 µg/mL
Accumulative excretion amount (oral CNS 110 mg/kg, 2 h): 1.881 ± 1.001 µg
Accumulative excretion percentage (oral CNS 110 mg/kg, 2 h): 0.066±0.032%
Excretion amount (oral CNS 110 mg/kg, 2 h): 1.881 ± 1.001 µg
Accumulative excretion amount (oral CNS 110 mg/kg, 4 h): 3.382 ± 2.188 µg
Accumulative excretion percentage (oral CNS 110 mg/kg, 4 h): 0.111±0.072%
Excretion amount (oral CNS 110 mg/kg, 4 h): 2.002 ± 1.609 µg
Accumulative excretion amount (oral CNS 110 mg/kg, 6 h): 3.994 ± 2.061 µg
Accumulative excretion percentage (oral CNS 110 mg/kg, 6 h): 0.132±0.073%
Excretion amount (oral CNS 110 mg/kg, 6 h): 0.816 ± 0.264 µg
Accumulative excretion amount (oral CNS 110 mg/kg, 8 h): 4.725 ± 2.486 µg
Accumulative excretion percentage (oral CNS 110 mg/kg, 8 h): 0.155±0.084%
Excretion amount (oral CNS 110 mg/kg, 8 h): 1.169 ± 0.913 µg
Accumulative excretion amount (oral CNS 110 mg/kg, 12 h): 5.430 ± 2.374 µg
Accumulative excretion percentage (oral CNS 110 mg/kg, 12 h): 0.188±0.080%
Excretion amount (oral CNS 110 mg/kg, 12 h): 0.805 ± 0.300 µg
Accumulative excretion amount (oral CNS 110 mg/kg, 24 h): 8.052 ± 5.572 µg
Accumulative excretion percentage (oral CNS 110 mg/kg, 24 h): 0.263±0.182%
Excretion amount (oral CNS 110 mg/kg, 24 h): 2.622 ± 5.710 µg
Accumulative excretion amount (oral CNS 110 mg/kg, 36 h): 8.388 ± 5.927 µg
Accumulative excretion percentage (oral CNS 110 mg/kg, 36 h): 0.274±0.195%
Excretion amount (oral CNS 110 mg/kg, 36 h): 0.336 ± 0.421 µg
Accumulative excretion amount (oral CNS 110 mg/kg, 48 h): 8.689 ± 6.056 µg
Accumulative excretion percentage (oral CNS 110 mg/kg, 48 h): 0.285±0.202%
Excretion amount (oral CNS 110 mg/kg, 48 h): 0.301 ± 0.361 µg
Accumulative excretion amount (oral CNS 110 mg/kg, 72 h): 8.87 ± 6.051 µg
Accumulative excretion percentage (oral CNS 110 mg/kg, 72 h): 0.293±0.206%
Excretion amount (oral CNS 110 mg/kg, 72 h): 0.185 ± 0.312 µg
Accumulative excretion amount (oral CNS 110 mg/kg, 96 h): 8.966 ± 6.090 µg
Accumulative excretion percentage (oral CNS 110 mg/kg, 96 h): 0.292±0.204%
Excretion amount (oral CNS 110 mg/kg, 96 h): 0.091 ± 0.106 µg
Accumulative excretion amount (oral CNS 110 mg/kg, 120 h): 9.027 ± 6.117 µg
Accumulative excretion percentage (oral CNS 110 mg/kg, 120 h): 0.292±0.206%
Excretion amount (oral CNS 110 mg/kg, 120 h): 0.061 ± 0.081 µg
Accumulative excretion amount (oral NS 60 mg/kg, 2 h): 4.985 ± 1.411 µg
Accumulative excretion percentage (oral NS 60 mg/kg, 2 h): 0.142±0.045%
Excretion amount (oral NS 60 mg/kg, 2 h): 4.985 ± 1.411 µg
Accumulative excretion amount (oral NS 60 mg/kg, 4 h): 6.610 ± 2.052 µg
Accumulative excretion percentage (oral NS 60 mg/kg, 4 h): 0.193±0.061%
Excretion amount (oral NS 60 mg/kg, 4 h): 2.844 ± 0.973 µg
Accumulative excretion amount (oral NS 60 mg/kg, 6 h): 9.709 ± 2.893 µg
Accumulative excretion percentage (oral NS 60 mg/kg, 6 h): 0.285±0.086%
Excretion amount (oral NS 60 mg/kg, 6 h): 3.616 ± 2.575 µg
Accumulative excretion amount (oral NS 60 mg/kg, 8 h): 11.931 ± 4.568 µg
Accumulative excretion percentage (oral NS 60 mg/kg, 8 h): 0.348±0.137%
Excretion amount (oral NS 60 mg/kg, 8 h): 3.890 ± 2.477 µg
Accumulative excretion amount (oral NS 60 mg/kg, 12 h): 15.061 ± 7.022 µg
Accumulative excretion percentage (oral NS 60 mg/kg, 12 h): 0.439±0.200%
Excretion amount (oral NS 60 mg/kg, 12 h): 3.130 ± 2.715 µg
Accumulative excretion amount (oral NS 60 mg/kg, 24 h): 15.697 ± 7.182 µg
Accumulative excretion percentage (oral NS 60 mg/kg, 24 h): 0.451±0.202%
Excretion amount (oral NS 60 mg/kg, 24 h): 0.636 ± 0.590 µg
Accumulative excretion amount (oral NS 60 mg/kg, 36 h): 16.042 ± 7.062 µg
Accumulative excretion percentage (oral NS 60 mg/kg, 36 h): 0.463±0.204%
Excretion amount (oral NS 60 mg/kg, 36 h): 0.402 ± 0.338 µg
Accumulative excretion percentage (oral NS 60 mg/kg, 48 h): 0.465±0.204%
Excretion amount (oral NS 60 mg/kg, 48 h): 0.285 ± 0.276 µg
Accumulative excretion amount (oral NS 60 mg/kg, 72 h): 16.417 ± 7.147 µg
Accumulative excretion percentage (oral NS 60 mg/kg, 72 h): 0.476±0.208%
Excretion amount (oral NS 60 mg/kg, 72 h): 0.091 ± 0.014 µg
Excretion amount (oral NS 60 mg/kg, 96 h): 0.062 ± 0.110 µg
Excretion amount (oral NS 60 mg/kg, 120 h): 0.062 ± 0.148 µg
SMILES: CC(C)=CCC[C@](C)(O[C@@H]1O[C@H](CO)[C@@H](O)[C@H](O)[C@H]1O)[C@H]1CC[C@]2(C)[C@@H]1[C@H](O)C[C@@H]1[C@@]3(C)CC[C@H](O)C(C)(C)[C@@H]3[C@@H](O[C@@H]3O[C@H](CO)[C@@H](O)[C@H](O)[C@H]3O)C[C@]12C [ginsenoside Rg1]
